According to the supplement of paper PMC5662764:
± gives the standard deviation of the averaged measurements.

Tests used:
Experiment in all cases: normalised growth rate inhibition (GR value) relative to DMSO control (GR (1 = untreated growth, 0 = cytostasis, <0 = cytotoxic)); higher = less growth inhibition
Conditions in all cases: 72 h
SKBR3 = test system: SKBR3
Method: (§1)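 Breast cancer cell lines (BT-20, Hs 578T, MCF 10A, MCF7, MDA-MB-231, SK-BR-3) were plated in 384-well plates and treated 24 h later with drugs at six concentrations (0.04-10 µM). Viable cells were counted by Hoechst/dead-cell-stain imaging at 0 and 72 h. Counts were normalised to DMSO controls on the same plate to give the relative cell count and the growth-rate inhibition (GR) value; technical plate triplicates were averaged for each biological replicate.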

MDAMB231 = test system: MDAMB231
Method: as §1

MCF10A = test system: MCF10A
Method: as §1

BT20 = test system: BT20
Method: as §1

HS578T = test system: HS578T
Method: as §1

MCF7 = test system: MCF7
Method: as §1

| SMILES | normalised growth rate inhibition (SKBR3; 0.04 µM) | normalised growth rate inhibition (SKBR3; 0.12 µM) | normalised growth rate inhibition (SKBR3; 0.37 µM) | normalised growth rate inhibition (SKBR3; 1.11 µM) | normalised growth rate inhibition (SKBR3; 3.33 µM) | normalised growth rate inhibition (SKBR3; 10 µM) | normalised growth rate inhibition (MDAMB231; 0.04 µM) | normalised growth rate inhibition (MDAMB231; 0.12 µM) | normalised growth rate inhibition (MDAMB231; 0.37 µM) | normalised growth rate inhibition (MDAMB231; 1.11 µM) | normalised growth rate inhibition (MDAMB231; 3.33 µM) | normalised growth rate inhibition (MDAMB231; 10 µM) | normalised growth rate inhibition (MCF10A; 0.04 µM) | normalised growth rate inhibition (MCF10A; 0.12 µM) | normalised growth rate inhibition (MCF10A; 0.37 µM) | normalised growth rate inhibition (MCF10A; 1.11 µM) | normalised growth rate inhibition (MCF10A; 3.33 µM) | normalised growth rate inhibition (MCF10A; 10 µM) | normalised growth rate inhibition (BT20; 0.04 µM) | normalised growth rate inhibition (BT20; 0.12 µM) | normalised growth rate inhibition (BT20; 0.37 µM) | normalised growth rate inhibition (BT20; 1.11 µM) | normalised growth rate inhibition (BT20; 3.33 µM) | normalised growth rate inhibition (BT20; 10 µM) | normalised growth rate inhibition (HS578T; 0.04 µM) | normalised growth rate inhibition (HS578T; 0.12 µM) | normalised growth rate inhibition (HS578T; 0.37 µM) | normalised growth rate inhibition (HS578T; 1.11 µM) | normalised growth rate inhibition (HS578T; 3.33 µM) | normalised growth rate inhibition (HS578T; 10 µM) | normalised growth rate inhibition (MCF7; 0.04 µM) | normalised growth rate inhibition (MCF7; 0.12 µM) | normalised growth rate inhibition (MCF7; 0.37 µM) | normalised growth rate inhibition (MCF7; 1.11 µM) | normalised growth rate inhibition (MCF7; 3.33 µM) | normalised growth rate inhibition (MCF7; 10 µM) |
| --- | --- | --- | --- | --- | --- | --- | --- | --- | --- | --- | --- | --- | --- | --- | --- | --- | --- | --- | --- | --- | --- | --- | --- | --- | --- | --- | --- | --- | --- | --- | --- | --- | --- | --- | --- | --- |
| Nc1cc(C(F)(F)F)c(-c2cc(N3CCOCC3)nc(N3CCOCC3)n2)cn1 [buparlisib] | 0.917 ± 0.09 | 0.651 ± 0.1 | 0.145 ± 0.056 | -0.203 ± 0.16 | -0.281 ± 0.14 | -0.332 ± 0.13 | 1.05 ± 0.063 | 0.978 ± 0.027 | 0.844 ± 0.04 | 0.487 ± 0.062 | 0.0994 ± 0.052 | -0.255 ± 0.12 | 1 ± 0.012 | 0.956 ± 0.044 | 0.857 ± 0.11 | 0.487 ± 0.23 | 0.0221 ± 0.089 | -0.181 ± 0.12 | 1.01 ± 0.029 | 0.868 ± 0.1 | 0.501 ± 0.11 | 0.0131 ± 0.038 | -0.261 ± 0.11 | -0.346 ± 0.12 | 0.955 ± 0.025 | 0.845 ± 0.028 | 0.679 ± 0.039 | 0.142 ± 0.16 | -0.17 ± 0.099 | -0.231 ± 0.091 | 0.759 ± 0.25 | 0.475 ± 0.18 | 0.148 ± 0.069 | -0.113 ± 0.032 | -0.188 ± 0.0036 | -0.189 ± 0.021 |
| Cc1cc(C(C)Nc2ccccc2)c2nc(N3CCOCC3)cc(=O)n2c1 (stereo not drawn) [TGX-221] | 0.681 ± 0.072 | 0.789 ± 0.049 | 0.907 ± 0.034 | 0.963 ± 0.036 | 0.961 ± 0.023 | 0.888 ± 0.03 | 0.779 ± 0.087 | 0.816 ± 0.083 | 0.826 ± 0.086 | 0.868 ± 0.042 | 0.691 ± 0.19 | 0.868 ± 0.03 | 0.968 ± 0.03 | 0.972 ± 0.039 | 0.971 ± 0.027 | 0.964 ± 0.033 | 0.591 ± 0.38 | 0.957 ± 0.08 | 0.914 ± 0.05 | 0.954 ± 0.032 | 1.01 ± 0.021 | 1.02 ± 0.052 | 1.06 ± 0.054 | 1.05 ± 0.026 | 0.9256 ± 0.0041 | 0.902 ± 0.044 | 0.91 ± 0.02 | 0.891 ± 0.029 | 0.597 ± 0.28 | 0.698 ± 0.093 | 0.82 ± 0.073 | 0.848 ± 0.018 | 0.96 ± 0.013 | 0.98 ± 0.034 | 0.79 ± 0.15 | 0.822 ± 0.076 |
| CC(C)(C)c1cnc(CSc2cnc(NC(=O)C3CCNCC3)s2)o1 | 0.464 ± 0.18 | -0.223 ± 0.15 | -0.312 ± 0.17 | -0.332 ± 0.17 | -0.343 ± 0.21 | -0.367 ± 0.21 | 0.314 ± 0.11 | -0.201 ± 0.17 | -0.24 ± 0.17 | -0.23 ± 0.15 | -0.203 ± 0.18 | -0.201 ± 0.14 | 0.921 ± 0.093 | 0.0575 ± 0.011 | -0.186 ± 0.2 | -0.256 ± 0.23 | -0.261 ± 0.23 | -0.254 ± 0.19 | 0.885 ± 0.061 | 0.134 ± 0.27 | -0.239 ± 0.067 | -0.323 ± 0.17 | -0.33 ± 0.19 | -0.299 ± 0.2 | 0.786 ± 0.044 | -0.123 ± 0.12 | -0.146 ± 0.094 | -0.155 ± 0.12 | -0.137 ± 0.095 | -0.148 ± 0.11 | -0.0791 ± 0.16 | -0.295 ± 0.04 | -0.329 ± 0.061 | -0.326 ± 0.058 | -0.34 ± 0.063 | -0.354 ± 0.083 |
